{"source": "paper doi:10.1101/2024.04.19.590212v1", "about": "(biorxiv, 2024)", "key": {"[1]": {"molecular_target": "T1, 5-HT2CR (Homo sapiens, UniProt P28335)", "T1 sequence (P28335 33-458)": "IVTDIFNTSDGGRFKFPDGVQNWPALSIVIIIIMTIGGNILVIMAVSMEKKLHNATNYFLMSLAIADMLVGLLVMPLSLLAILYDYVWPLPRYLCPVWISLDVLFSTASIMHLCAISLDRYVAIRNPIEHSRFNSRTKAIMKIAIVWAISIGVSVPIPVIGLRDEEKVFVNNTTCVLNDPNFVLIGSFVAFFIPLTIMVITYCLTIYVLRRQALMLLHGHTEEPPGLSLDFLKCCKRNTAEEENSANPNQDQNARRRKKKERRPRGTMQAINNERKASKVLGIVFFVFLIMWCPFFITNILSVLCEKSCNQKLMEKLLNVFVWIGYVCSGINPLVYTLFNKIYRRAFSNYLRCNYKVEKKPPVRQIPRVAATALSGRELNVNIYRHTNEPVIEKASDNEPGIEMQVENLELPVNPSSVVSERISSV", "assay": "cell-based"}, "[2]": {"molecular_target": "T2, 5-HT1BR (Homo sapiens, UniProt P28222)", "T2 sequence (P28222 whole entry)": "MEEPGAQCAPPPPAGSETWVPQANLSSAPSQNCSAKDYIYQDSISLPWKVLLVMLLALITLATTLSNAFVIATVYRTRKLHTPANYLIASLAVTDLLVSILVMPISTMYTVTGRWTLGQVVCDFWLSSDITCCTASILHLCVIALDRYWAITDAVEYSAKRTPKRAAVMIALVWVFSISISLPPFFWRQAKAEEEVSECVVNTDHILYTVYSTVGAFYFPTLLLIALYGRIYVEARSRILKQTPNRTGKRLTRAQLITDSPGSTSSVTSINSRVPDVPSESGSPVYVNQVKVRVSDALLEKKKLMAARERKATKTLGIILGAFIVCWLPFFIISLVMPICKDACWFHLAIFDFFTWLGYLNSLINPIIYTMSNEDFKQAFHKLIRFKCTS", "assay": "cell-based", "conditions": "CHO-K1, read-out: 5-HT1BR Rmax (cAMP)"}, "[3]": {"molecular_target": "T2, 5-HT1BR", "assay": "cell-based"}, "[4]": {"molecular_target": "T1, 5-HT2CR", "assay": "cell-based", "remark": "listed apart in the source"}, "[5]": {"molecular_target": "T3, 5-HT2AR (Homo sapiens, UniProt P28223)", "T3 sequence (P28223 whole entry)": "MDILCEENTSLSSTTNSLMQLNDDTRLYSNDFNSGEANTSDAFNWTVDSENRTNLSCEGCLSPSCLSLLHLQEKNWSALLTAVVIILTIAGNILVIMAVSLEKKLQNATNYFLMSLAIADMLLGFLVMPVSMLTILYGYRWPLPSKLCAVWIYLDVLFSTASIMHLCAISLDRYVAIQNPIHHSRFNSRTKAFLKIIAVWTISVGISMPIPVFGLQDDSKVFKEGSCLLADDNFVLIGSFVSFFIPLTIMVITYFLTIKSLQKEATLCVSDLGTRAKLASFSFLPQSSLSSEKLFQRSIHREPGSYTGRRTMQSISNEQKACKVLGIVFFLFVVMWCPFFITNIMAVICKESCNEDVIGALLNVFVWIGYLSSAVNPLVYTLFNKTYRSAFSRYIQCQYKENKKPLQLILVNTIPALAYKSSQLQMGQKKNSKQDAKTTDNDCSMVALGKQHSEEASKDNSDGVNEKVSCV", "assay": "cell-based", "conditions": "U2OS, read-out: 5-HT2AR Rmax (beta-arrestin)"}, "[6]": {"molecular_target": "T2, 5-HT1BR", "assay": "cell-based", "remark": "listed apart in the source"}, "[7]": {"molecular_target": "T1, 5-HT2CR", "conditions": "antagonist mode against 5-HT-induced response; incomplete inhibition"}, "[8]": {"molecular_target": "T3, 5-HT2AR", "assay": "cell-based", "conditions": "U2OS, read-out: 5-HT2AR Rmax (internalization)"}, "[9]": {"molecular_target": "T1, 5-HT2CR", "conditions": "agonist mode; partial agonist"}}, "note": "Where two headings read alike, the source gives them in different places.", "data": [{"smiles": "COc1cc(C(F)(F)F)c(OC)cc1[C@@H]1CCCNC1", "note": "[LPH-5, (S)-3-(2,5-dimethoxy-4-(trifluoromethyl)phenyl)piperidine]", "values": [{"measurement": "IC50", "setting": "[1]", "value": 38, "unit": "nM"}, {"measurement": "Emax", "setting": "[2]", "value": 78, "unit": "%"}, {"measurement": "EC50", "setting": "[3]", "value": 870, "unit": "nM"}, {"measurement": "EC50", "setting": "[4]", "value": "> 30000", "unit": "nM"}, {"measurement": "Emax", "setting": "[5]", "value": "61 ± 11", "unit": "%"}, {"measurement": "EC50", "setting": "[6]", "value": "> 30000", "unit": "nM"}, {"measurement": "IC50", "setting": "[7]", "value": "300 [pIC50 6.52 ± 0.08] nM"}, {"measurement": "Emax", "setting": "[8]", "value": "94 ± 11", "unit": "%"}, {"measurement": "EC50", "setting": "[9]", "value": "110 [pEC50 6.96 ± 0.07] nM"}]}]}
